13 molecules from US10206394B2, “Herbicidal compounds” (Syngenta Participations AG, priority 2014, dated 2019) can be followed below.

Where two headings read alike, the source gives them in different places.

Common to all, as to test: Glasshouse assay for herbicidal activity (pre- and post-emergence), percentage phytotoxicity
Holding throughout (type): in vivo

The subject of experiment [1] is Alopecurus myosuroides (ALOMY). Conditions: Alopecurus myosuroides. The protocol: (§1) Test—Glasshouse Assay for Herbicidal Activity
(§2) Seeds of a variety of monocotyledonous and dicotyledonous test plants are sown in standard soil in pots. The plants are cultivated for one day (for pre-emergence (PRE)) or for about 12 days (for post-emergence (POST)) under controlled conditions in a glasshouse (warm climate species at 24/18° C., cool climate species at 20/16° C., both at day/night; 16 hours light; 65% humidity).
(§3) The test plants are then grown on, in a glasshouse (greenhouse) under controlled conditions (warm climate species at 24/18° C., cool climate species at 20/16° C., both at day/night; 16 hours light; 65% humidity) and are watered twice daily. 15 days after application of the test herbicide (15 DAA) (for post-emergence), and 20 days after application of the test herbicide (20 DAA) (for pre-emergence), the test plants are evaluated visually, and an assessed percentage phytotoxicity score is given for each herbicidal application on each plant species (with 100%=total damage to plant; 0%=no damage to plant).
(§4) The plant species tested are as follows: Alopecurus myosuroides (ALOMY), Avena fatua (AVEFA), Lolium perenne (LOLPE), Echinochloa crus-galli (ECHCG).

Another experiment has as its system Avena fatua (AVEFA). As to conditions: Avena fatua. The protocol:
as §1, §2, §3, §4

Experiment [2] has as its system Echinochloa crus-galli (ECHCG). As to conditions: Echinochloa crus-galli. The protocol: as §1, §2, §3, §4
The subject of a further experiment is Lolium perenne (LOLPE). As to conditions: Lolium perenne. As for the experimental part:
as §1, §2, §3, §4

Setting [3] is: post-emergence, 360 h, Rate 250 g/ha, post-emergence, assessed visually 15 DAA, 100%=total damage, 0%=no damage, read-out: Post-emergence herbicidal activity (percentage phytotoxicity) ALOMY POST.
Where [4] appears, read: pre-emergence, 480 h, Rate 250 g/ha, pre-emergence, assessed visually 20 DAA, 100%=total damage, 0%=no damage, read-out: Pre-emergence herbicidal activity (percentage phytotoxicity) ALOMY PRE.
Where [5] appears, read: post-emergence, 360 h, Rate 250 g/ha, post-emergence, assessed visually 15 DAA, 100%=total damage, 0%=no damage, read-out: Post-emergence herbicidal activity (percentage phytotoxicity) AVEFA POST.
[6] abbreviates: pre-emergence, 480 h, Rate 250 g/ha, pre-emergence, assessed visually 20 DAA, 100%=total damage, 0%=no damage, read-out: Pre-emergence herbicidal activity (percentage phytotoxicity) AVEFA PRE.
The mark [7] stands for this setting: post-emergence, 360 h, Rate 250 g/ha, post-emergence, assessed visually 15 DAA, 100%=total damage, 0%=no damage, read-out: Post-emergence herbicidal activity (percentage phytotoxicity) ECHCG POST.
Where [8] appears, read: pre-emergence, 480 h, Rate 250 g/ha, pre-emergence, assessed visually 20 DAA, 100%=total damage, 0%=no damage, read-out: Pre-emergence herbicidal activity (percentage phytotoxicity) ECHCG PRE.
The mark [9] stands for this setting: post-emergence, 360 h, Rate 250 g/ha, post-emergence, assessed visually 15 DAA, 100%=total damage, 0%=no damage, read-out: Post-emergence herbicidal activity (percentage phytotoxicity) LOLPE POST.
Setting [10] is: pre-emergence, 480 h, Rate 250 g/ha, pre-emergence, assessed visually 20 DAA, 100%=total damage, 0%=no damage, read-out: Pre-emergence herbicidal activity (percentage phytotoxicity) LOLPE PRE.

Turning to `C#CC(C)(C)NC(=O)CC1CC(=O)C(c2c(C)cc(C#CC)cc2C)C1=O` (single isomer, unassigned) [Compound A56], the pest or weed control at 250 g/ha in experiment [1] (setting [3]) was 100%; in experiment [1] (setting [4]) it was 100%; in the experiment on Avena fatua (AVEFA) (setting [5]), 100%; in the experiment on Avena fatua (AVEFA) (setting [6]), 90%; in experiment [2] (setting [7]), 100%; in experiment [2] (setting [8]) it was 100%. Moreover, the pest or weed control at 250 g/ha in the experiment with Lolium perenne (LOLPE) (setting [9]) and with Lolium perenne (LOLPE) (setting [10]) was 90% throughout.
Regarding `C#CC(C)N(C)C(=O)CC1CC(=O)C(c2c(C)cc(C)cc2C)C1=O` (single isomer, unassigned) [Compound A183], the pest or weed control at 250 g/ha in experiment [1] (post-emergence, 360 h, post-emergence, 250 g/ha, 15 DAA, visual score (100%=total damage; 0%=no damage), read-out: ALOMY POST herbicidal activity (percentage phytotoxicity)) stood at 70%; in experiment [1] (pre-emergence, 480 h, pre-emergence, 250 g/ha, 20 DAA, visual score (100%=total damage; 0%=no damage), read-out: ALOMY PRE herbicidal activity (percentage phytotoxicity)), 50%; in the experiment with Avena fatua (AVEFA) (post-emergence, 360 h, post-emergence, 250 g/ha, 15 DAA, visual score (100%=total damage; 0%=no damage), read-out: AVEFA POST herbicidal activity (percentage phytotoxicity)) it was 70%; in the experiment on Avena fatua (AVEFA) (pre-emergence, 480 h, pre-emergence, 250 g/ha, 20 DAA, visual score (100%=total damage; 0%=no damage), read-out: AVEFA PRE herbicidal activity (percentage phytotoxicity)), 0%; in experiment [2] (post-emergence, 360 h, post-emergence, 250 g/ha, 15 DAA, visual score (100%=total damage; 0%=no damage), read-out: ECHCG POST herbicidal activity (percentage phytotoxicity)), 80%; in experiment [2] (pre-emergence, 480 h, pre-emergence, 250 g/ha, 20 DAA, visual score (100%=total damage; 0%=no damage), read-out: ECHCG PRE herbicidal activity (percentage phytotoxicity)), 80%. In addition, the pest or weed control at 250 g/ha in the experiment on Lolium perenne (LOLPE) (post-emergence, 360 h, post-emergence, 250 g/ha, 15 DAA, visual score (100%=total damage; 0%=no damage), read-out: LOLPE POST herbicidal activity (percentage phytotoxicity)) is 70%; with Lolium perenne (LOLPE) (pre-emergence, 480 h, pre-emergence, 250 g/ha, 20 DAA, visual score (100%=total damage; 0%=no damage), read-out: LOLPE PRE herbicidal activity (percentage phytotoxicity)) it was 90%.
With `CC#Cc1cc(C)c(C2C(=O)CC(CC(=O)NC(C)C)C2=O)c(C)c1` (centres unmarked) [Compound A8, 2-[3-(2,6-dimethyl-4-prop-1-ynyl-phenyl)-2,4-dioxo-cyclopentyl]-N-isopropyl-acetamide], the pest or weed control at 250 g/ha (in experiment [1] (setting [3]); in experiment [1] (setting [4]); with Avena fatua (AVEFA) (setting [5]); in the experiment on Avena fatua (AVEFA) (setting [6]); in experiment [2] (setting [7]); in experiment [2] (setting [8])) was 100% each time. Further, the pest or weed control at 250 g/ha in the experiment on Lolium perenne (LOLPE) (setting [9]) and in the experiment with Lolium perenne (LOLPE) (setting [10]) was 100% in each case.
Take `C#Cc1cc(C)c(C2C(=O)CC(CC(=O)NC(C)CC)C2=O)c(C)c1` (centres unmarked) [Compound A9, 2-[3-(4-ethynyl-2,6-dimethyl-phenyl)-2,4-dioxo-cyclopentyl]-N-sec-butyl-acetamide]: the pest or weed control at 250 g/ha in experiment [1] (setting [3]) came to 80%; in experiment [1] (setting [4]), 90%; with Avena fatua (AVEFA) (setting [5]) it was 100%; in the experiment on Avena fatua (AVEFA) (setting [6]) it was 90%; in experiment [2] (setting [7]), 90%; in experiment [2] (setting [8]), 100%. Also, the pest or weed control at 250 g/ha in the experiment with Lolium perenne (LOLPE) (setting [9]) was found to be 80%; in the experiment on Lolium perenne (LOLPE) (setting [10]) it was 90%.
Take `C#CCNC(=O)CC1CC(=O)C(c2c(C)cc(C)cc2C)C1=O` (centres unmarked) [Compound A10]: the pest or weed control at 250 g/ha in experiment [1] (setting [3]) came to 80%; in experiment [1] (setting [4]), 70%; in the experiment on Avena fatua (AVEFA) (setting [5]) it was 60%; in the experiment on Avena fatua (AVEFA) (setting [6]), 70%; in experiment [2] (setting [7]), 90%; in experiment [2] (setting [8]), 90%. Also, the pest or weed control at 250 g/ha in the experiment with Lolium perenne (LOLPE) (setting [9]) and with Lolium perenne (LOLPE) (setting [10]) was 90% each time.
For the molecule `C#CC(C)(C)NC(=O)CC1CC(=O)C(c2c(C)cc(C)cc2C)C1=O` (centres unmarked) [Compound A11], the pest or weed control at 250 g/ha in experiment [1] (setting [3]) amounted to 80%; in experiment [1] (setting [4]), 70%; in the experiment with Avena fatua (AVEFA) (setting [5]), 70%; in the experiment with Avena fatua (AVEFA) (setting [6]), 50%; in experiment [2] (setting [7]) it was 80%; in experiment [2] (setting [8]), 70%. Also, the pest or weed control at 250 g/ha in the experiment on Lolium perenne (LOLPE) (setting [9]) and in the experiment on Lolium perenne (LOLPE) (setting [10]) was 70% each time.
Take `Cc1cc(C)c(C2C(=O)CC(CC(=O)NCC3CCOCC3)C2=O)c(C)c1` (centres unmarked) [Compound A13]: the pest or weed control at 250 g/ha in experiment [1] (setting [3]) was 80%; in experiment [1] (setting [4]), 50%; with Avena fatua (AVEFA) (setting [5]) it was 70%; in the experiment on Avena fatua (AVEFA) (setting [6]) it was 40%; in experiment [2] (setting [7]), 80%; in experiment [2] (setting [8]) it was 100%. Moreover, the results for the pest or weed control at 250 g/ha with Lolium perenne (LOLPE) (setting [9]) and with Lolium perenne (LOLPE) (setting [10]) were 80% and 70%, respectively.
Regarding `Cc1cc(C)c(C2C(=O)CC(CC(=O)NC3CCOCC3)C2=O)c(C)c1` (centres unmarked) [Compound A17], the pest or weed control at 250 g/ha in experiment [1] (setting [3]) was 80%; in experiment [1] (setting [4]), 70%; in the experiment on Avena fatua (AVEFA) (setting [5]), 70%; in the experiment with Avena fatua (AVEFA) (setting [6]), 40%; in experiment [2] (setting [7]) it was 80%; in experiment [2] (setting [8]) it was 70%. The pest or weed control at 250 g/ha in the experiment on Lolium perenne (LOLPE) (setting [9]) was 80%; in the experiment with Lolium perenne (LOLPE) (setting [10]), 70%.
Regarding `Cc1ccc(CNC(=O)CC2CC(=O)C(c3c(C)cc(C)cc3C)C2=O)nc1` (centres unmarked) [Compound A23], the pest or weed control at 250 g/ha in experiment [1] (setting [3]) was determined as 80%; in experiment [1] (setting [4]), 80%; with Avena fatua (AVEFA) (setting [5]) it was 70%; with Avena fatua (AVEFA) (setting [6]), 60%; in experiment [2] (setting [7]), 90%; in experiment [2] (setting [8]), 100%. Besides, the pest or weed control at 250 g/ha with Lolium perenne (LOLPE) (setting [9]) amounted to 80%; in the experiment on Lolium perenne (LOLPE) (setting [10]), 70%.
For `Cc1cc(C)c(C2C(=O)CC(CC(=O)N3CCOCC3)C2=O)c(C)c1` (centres unmarked) [Compound A24], the pest or weed control at 250 g/ha in experiment [1] (setting [3]) came to 90%; in experiment [1] (setting [4]) it was 80%; with Avena fatua (AVEFA) (setting [5]), 90%; with Avena fatua (AVEFA) (setting [6]) it was 90%; in experiment [2] (setting [7]) it was 100%; in experiment [2] (setting [8]), 100%. The results for the pest or weed control at 250 g/ha in the experiment with Lolium perenne (LOLPE) (setting [9]) and in the experiment with Lolium perenne (LOLPE) (setting [10]) were 100% and 90%, respectively.
`C#CCNC(=O)CC1CC(=O)C(c2c(C)cc(C#CC)cc2C)C1=O` (centres unmarked) [Compound A28]: the pest or weed control at 250 g/ha in experiment [1] (setting [3]) was 100%; in experiment [1] (setting [4]), 100%; in the experiment with Avena fatua (AVEFA) (setting [5]), 100%; with Avena fatua (AVEFA) (setting [6]), 100%; in experiment [2] (setting [7]), 100%; in experiment [2] (setting [8]) it was 90%. Besides, the pest or weed control at 250 g/ha with Lolium perenne (LOLPE) (setting [9]) was determined as 100%; with Lolium perenne (LOLPE) (setting [10]), 90%.
On to `CC#Cc1cc(C)c(C2C(=O)CC(CC(=O)NCCCC)C2=O)c(C)c1` (centres unmarked) [Compound A29], for which the pest or weed control at 250 g/ha was determined as 100% in experiment [1] (setting [3]); 100% in experiment [1] (setting [4]); 100% in the experiment on Avena fatua (AVEFA) (setting [5]); 90% in the experiment with Avena fatua (AVEFA) (setting [6]); 100% in experiment [2] (setting [7]); 100% in experiment [2] (setting [8]). In addition, the pest or weed control at 250 g/ha with Lolium perenne (LOLPE) (setting [9]) and with Lolium perenne (LOLPE) (setting [10]) was 100% each time.
With `CC#Cc1cc(C)c(C2C(=O)CC(CC(=O)NCC(C)C)C2=O)c(C)c1` (centres unmarked) [Compound A30], the pest or weed control at 250 g/ha (in experiment [1] (setting [3]); in experiment [1] (setting [4]); with Avena fatua (AVEFA) (setting [5]); with Avena fatua (AVEFA) (setting [6]); in experiment [2] (setting [7]); in experiment [2] (setting [8])) was 100% throughout. In addition, the pest or weed control at 250 g/ha in the experiment on Lolium perenne (LOLPE) (setting [9]) and in the experiment with Lolium perenne (LOLPE) (setting [10]) was 100% throughout.
